From patent publication US11596632B2, “JAK1 pathway inhibitors for the treatment of gastrointestinal disease” (Incyte Corporation, priority 2018, dated 2023)
“Also recorded” adds a separate entry of the source.

Experiments:
[1] = target: human JAK1 (a.a. 837-1142) (Homo sapiens (Human), UniProt P23458); assay: In vitro JAK kinase assay (HTRF), JAK1; format: biochemical; conditions: 1 mM ATP
Description: The catalytic activity of JAK1, JAK2 or JAK3 was assayed by measuring the phosphorylation of a biotinylated peptide. The phosphorylated peptide was detected by homogenous time resolved fluorescence (HTRF). […] Reactions are carried out at room temperature for 1 hour and then stopped with 20 μL 45 mM EDTA, 300 nM SA-APC, 6 nM Eu-Py20 in assay buffer (Perkin Elmer, Boston, Mass.). Binding to the Europium labeled antibody takes place for 40 minutes and HTRF signal was measured on a Fusion plate reader (Perkin Elmer, Boston, Mass.).

[2] = Fecal concentration and excretion after oral sustained release dose; format: in vivo, human
Description: The method used for analyzing Compound 1 in human feces is a qualified method. The human fecal samples are collected in 1:1 homogenate at the clinical site [1 part of water (mL): 1 part of faces(g)]. Prior to sample analysis, additional water is added to the sample homogenate to achieve the final ratio of feces to water at 1:19 as calibration standard and QC samples. The final homogenates are processed and analyzed with calibration standards and QC samples. For human homogenate analysis, briefly, 100 μL of the feces homogenate (blanks, QC and study samples) is placed in a test tube. After an aliquot of 20 μL of internal standard is added and mixed, an aliquot of 200 μL of 0.1 M NaHCO3 is added and vortexed. Then 2 mL of MtBE is added and the samples are vortexed. After centrifugation, MtBE layer is transferred to a clean test tube. The samples were then dried under nitrogen at approximately 40° C. An aliquot of 1 mL of reconstitution solution (acetonitrile:water, 50:50, v/v) is then added to each sample and vortexed. Then 10 μL of the sample was diluted with 3 mL reconstitution solution in a clean test tube. The sample is transferred to an autosampler vial and 10 μL is injected into an LC-MS/MS for analysis. The LC-MS/MS analysis is carried out with an AB Sciex API 4000 or API 4000 QTrap mass spectrometer coupled with an HPLC pump and an autosampler. The chromatographic separation is achieved on a Agilent Eclipse Plus C8 50×4.6 mm, 5 μm HPLC column, with gradient elution. The mass spectrometer is operated in positive ESI mode. MRM transition is m/z 554.3→186.2 for Compound 1 and m/z 558.4→190.2 for the internal standard. Peak-area integrations are performed using the Analyst software and concentrations are calculated in Watson LIMS. Concentrations of human feces homogenates are calculated using 8 concentration levels ranging from 1 μg/g to 300 μg/g (1.8 μM to 542 μM) with weighted linear regression, according to the following formula: y=ax+b(weighting factor=1/x^2)
where x=Compound 1 concentration in μg/g in human feces homogenates, y=Peak-area ratio, a=Slope, and b=Intercept.
Methods: Compound 1 concentrations in plasma and feces (colonic surrogate) were determined following a single sustained release 25 mg oral dose (see, e.g., Example B, 25 mg SR composition). Compound 1 concentrations in plasma following a single 100 mg dose were also determined in a separate study (see, e.g., Example C for measuring concentrations of Compound 1 in plasma). Ex vivo study: Colon tissue samples from healthy and UC subjects (2/group) were mounted on a vertical Ussing diffusion chamber. [^14C]Compound 1 was applied to the apical side of the chamber at 100 and 1000 nM and incubated for 1 h. Samples were collected from the donor and receiver sides for determination of Compound 1 concentration. The colonic tissue was snap frozen for quantitative autoradiography.

[3] = test system: patients with plaque psoriasis; assay: Clinical study in patients with plaque psoriasis (sPGA, safety); format: in vivo, human
Description: The systemic effects of Compound 1 have been studied in the auto-immune diseases RA and Ps. Inhibition of phosphorylation of STAT3 following stimulation with IL-6, a marker of AK1 inhibition, and TPO, a marker of JAK2 inhibition was measured in both studies. In patients with Ps doses of 100 mg QD, 200 mg QD, 200 mg BID, and 600 mg QD were studied.

[4] = test system: TNBS-induced colitis in BALB/c mice; assay: TNBS-induced colitis model in mice; format: in vivo, mouse
Description: (§1) Preclinical models of IBD were established in BALB/c mice by intracolonic injection of 2,4,6-trinitrobenzene sulfonic acid (TNBS) or 4-ethoxymethylene-2-phenyl-2-oxazolin-5-one (oxazolone) to trigger an immune response, as described below. Body weight, stool consistency and fecal blood were scored. Additional readouts included colon weight to length ratio and histological evaluation. Blood was collected for pharmacokinetic analysis.
Male BALB/c mice were purchased (Charles River Laboratories) and distal colitis was induced by intracolonic instillation of TNBS (2,4,6-trinitrobenzenesulfonic acid solution, 1 mg in 0.1 mL 50% ethanol). Compound 1 treatment was administered at 30 mg/kg by oral gavage (PO) or 3 mg/kg by intracolonic injection (IC) twice daily (BID). Diarrhea was quantified on a 0-3 rating scale, (0=normal; 1=soft but still formed; 2=very soft; 3=diarrhea) on days 3 to 5 post TNBS sensitization.

[5] = Circulating and colon tissue drug concentrations in mice, oral vs intracolonic; format: in vivo, mouse
Description: as §1
In a further study, quantification of circulating and tissue drug concentrations clearly differentiated the local versus systemic JAK1 target inhibition. […] In contrast, localized Compound 1 delivery was characterized by minimal peak systemic concentrations of approximately 0.04 μM but sustained exposure ≥0.45 μM in the colon tissue, as shown in FIG. 11D. Therefore, strategic targeting or release of JAK1 inhibitors within the inflamed gastrointestinal tissue can potentially achieve improved benefit-risk profiles.

[6] = localized intracolonic delivery (3 mg/kg)

Sequence of human JAK1 (a.a. 837-1142) (P23458 837-1142): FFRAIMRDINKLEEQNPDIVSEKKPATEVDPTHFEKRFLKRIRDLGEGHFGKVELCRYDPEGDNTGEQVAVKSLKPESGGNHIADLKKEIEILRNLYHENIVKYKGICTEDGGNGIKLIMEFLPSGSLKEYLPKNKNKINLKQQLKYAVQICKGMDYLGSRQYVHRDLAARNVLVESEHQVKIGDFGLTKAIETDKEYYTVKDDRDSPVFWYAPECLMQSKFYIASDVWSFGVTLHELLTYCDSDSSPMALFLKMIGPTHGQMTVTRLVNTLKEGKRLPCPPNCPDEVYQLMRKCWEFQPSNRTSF

N#CCC1(n2cc(-c3ncnc4[nH]ccc34)cn2)CN(C2CCN(C(=O)c3ccnc(C(F)(F)F)c3F)CC2)C1 [Compound 1, {1-{1-[3-Fluoro-2-(trifluoromethyl)isonicotinoyl]piperidin-4-yl}-3-[4-(7H-pyrrolo[2,3-d]pyrimidin-4-yl)-1H-pyrazol-1-yl]azetidin-3-yl}acetonitrile]
IC50 [1]: < 0.01 µM
administered dose excreted intact as parent compound in the feces ([2]; humans, oral): ~30%
Maximal fecal concentration, geometric mean ([2]; single 25 mg SR dose, feces 0-24 hours): 85.5 nM
Maximal fecal concentration, Mean ([2]; single 25 mg SR dose, feces 0-24 hours, SD 41.4 nM): 93.4 nM
patients with maximum fecal concentrations exceeding the in vitro IC50 for JAK1 inhibition (58 nM) ([2]; single 25 mg dose): eight of twelve
dose eliminated as unchanged Compound 1 in the feces ([2]; sustained release formulation): 27.1%
mean change from baseline sPGA at Day 28, dose relation ([3]; 100 mg QD, 200 mg QD, 200 mg BID, 600 mg QD): dose-dependent response
Day 28 sPGA score, Mean (SD) ([3]; 100 mg QD, n=9): 2.6 (1.01)
Day 28 sPGA score, Median ([3]; 100 mg QD, n=9): 2.0
Percent change from baseline in sPGA score at Day 28, Median ([3]; 100 mg QD, n=9): −33.3%
Percent change from baseline in sPGA score at Day 28, Mean (SD) ([3]; 100 mg QD, n=9, p=0.270 vs placebo): −22.2 (23.57) Percent
change from baseline in sPGA, clinical meaning ([3]; 200 mg BID (p=0.053) and 600 mg QD (p=0.003)): clinically meaningful changes from baseline
Day 28 sPGA score, Mean (SD) ([3]; 200 mg BID, n=9): 2.0 (1.00)
Day 28 sPGA score, Median ([3]; 200 mg BID, n=9): 2.0
Percent change from baseline in sPGA score at Day 28, Median ([3]; 200 mg BID, n=9): −33.3%
Percent change from baseline in sPGA score at Day 28, Mean (SD) ([3]; 200 mg BID, n=9, p=0.053 vs placebo): −35.2 (33.79) Percent
Day 28 sPGA score, Mean (SD) ([3]; 200 mg QD, n=9): 2.3 (1.00)
Day 28 sPGA score, Median ([3]; 200 mg QD, n=9): 2.0
Percent change from baseline in sPGA score at Day 28, Median ([3]; 200 mg QD, n=9): −33.3%
Percent change from baseline in sPGA score at Day 28, Mean (SD) ([3]; 200 mg QD, n=9, p=0.118 vs placebo): −29.4 (31.14) Percent
Day 28 sPGA score, Mean (SD) ([3]; 600 mg QD, n=11): 1.8 (0.98)
Day 28 sPGA score, Median ([3]; 600 mg QD, n=11): 2.0
Percent change from baseline in sPGA score at Day 28, Median ([3]; 600 mg QD, n=11): −33.3%
Percent change from baseline in sPGA score at Day 28, Mean (SD) ([3]; 600 mg QD, n=11, p=0.003 vs placebo): −42.4 (26.21) Percent
neutropenia ([3]; psoriasis patients): No neutropenia was noted
fecal blood score ([4]; 3 mg/kg IC BID): significant (p<0.05) decrease in fecal blood score
total colonic macroscopic damage ([4]; 3 mg/kg IC BID): ameliorated total colonic macroscopic damage
disease severity / disease recovery ([4]; 3 mg/kg intracolonic BID): significantly reduced disease severity; also recorded: highly efficacious in enhancing disease recovery; also recorded: more rapidly induced recovery; also recorded: highly efficacious in TNBS-induced colitis
disease severity / disease score recovery ([4]; 30 mg/kg PO BID, vs vehicle): significantly reduced disease severity; also recorded: accelerated disease score recovery
stool consistency ([4]; 30 mg/kg PO or 3 mg/kg intracolonic, twice daily, vs control): significantly (p<0.05) improved stool consistency
systemic drug exposure relative to JAK1 IC50 ([5]; intracolonic doses): below JAK1 IC50
peak systemic concentrations [5, 6]: approximately 0.04 μM
sustained exposure in the colon tissue [5, 6]: ≥ 0.45 µM
peak circulating drug level ([5]; oral dosing (30 mg/kg)): approximately 11 μM
